This is an account of results in article PMC6387077, “Interaction of Halictine-Related Antimicrobial Peptides with Membrane Models” (International Journal of Molecular Sciences, 2019).

One series concerns Bacillus subtilis. The settings on record: ref [19]; cited from earlier work. From the text:
Table 1 Amino acid sequences, physico-chemical and biological properties (µH is the hydrophobic moment, and H represents the mean hydrophobicity, calculated according to [27]), of the studied antibacterial HAL-1 peptides. Data were taken from ref. [19]. Point mutations with respect to the natural HAL-1 peptide are underlined. The Schiffer−Edmundson wheel projection of the HAL-1 and its analogs | column: Antimicrobial Activity MIC (µM) / B.^1

The subject of another series is Staphylococcus aureus. The settings on record: ref [19]; cited from earlier work. From the text:
Table 1 Amino acid sequences, physico-chemical and biological properties (µH is the hydrophobic moment, and H represents the mean hydrophobicity, calculated according to [27]), of the studied antibacterial HAL-1 peptides. Data were taken from ref. [19]. Point mutations with respect to the natural HAL-1 peptide are underlined. The Schiffer−Edmundson wheel projection of the HAL-1 and its analogs | column: Antimicrobial Activity MIC (µM) / S.^2

The next series concerns Escherichia coli. The settings on record: ref [19]; cited from earlier work. An excerpt: Table 1 Amino acid sequences, physico-chemical and biological properties (µH is the hydrophobic moment, and H represents the mean hydrophobicity, calculated according to [27]), of the studied antibacterial HAL-1 peptides. Data were taken from ref. [19]. Point mutations with respect to the natural HAL-1 peptide are underlined. The Schiffer−Edmundson wheel projection of the HAL-1 and its analogs | column: Antimicrobial Activity MIC (µM) / E.^3

The test system of another series is red blood cells. As to conditions: hemolytic activity against red blood cells; ref [19]; cited from earlier work. From the text:
Table 1 Amino acid sequences, physico-chemical and biological properties (µH is the hydrophobic moment, and H represents the mean hydrophobicity, calculated according to [27]), of the studied antibacterial HAL-1 peptides. Data were taken from ref. [19]. Point mutations with respect to the natural HAL-1 peptide are underlined. The Schiffer−Edmundson wheel projection of the HAL-1 and its analogs | column: Hemolytic LC50 (µM)

The test system of a further series is Pseudomonas aeruginosa. The settings on record: ref [19]; cited from earlier work. An excerpt:
Table 1 Amino acid sequences, physico-chemical and biological properties (µH is the hydrophobic moment, and H represents the mean hydrophobicity, calculated according to [27]), of the studied antibacterial HAL-1 peptides. Data were taken from ref. [19]. Point mutations with respect to the natural HAL-1 peptide are underlined. The Schiffer−Edmundson wheel projection of the HAL-1 and its analogs | column: Antimicrobial Activity MIC (µM) / P.^4

Series [1] is described as follows: Concentration dependence of ECD and VCD spectra (aggregation). The class given is physicochemical. The settings on record: aqueous solution, 100 mg/mL peptide, room temperature, ECD and VCD read-out. An excerpt: In order to clarify the discrepancy between the results of the peptide conformational analyses obtained by ECD and IR, we have complemented our study by a measurement of concentration dependencies of ECD spectra of the HAL-1 peptides (Figure 9). […] In order to determine the peptide conformational change induced by its high concentration more specifically, we have performed measurements of VCD spectra of the peptides (Figure 10) using the highest peptide concentration studied by ECD (i.e., 100 mg/mL). VCD measurements supported the results of ECD analysis, confirming that at high peptide concentration, HAL-1 and its analogs HAL-1/6, HAL-1/10, and HAL-1/20 spontaneously form the α-helical structure, indicated by a negative/positive VCD couplet in the amide I region. On the contrary, the HAL-1/2 analog (Figure 10b) seems to undergo a distinct conformational change, forming highly organized β-sheet aggregates (β-sheet fibrils) characterized by an intense five-peak VCD signal with the (−/−/+/−/−) sign pattern in the amide I and II region. […]
Concentration dependence was measured for all the peptides at the given concentrations: 0.1, 10, and 100 mg/mL. […] The α-helical fraction was calculated using a two-state model. […]
VCD spectra were measured on a dual source and dual photo-elastic modulator [67] […]

Regarding “GKWSKILGKLIR [HAL-1/20, HAL-1 analog, Met2 and His9 substituted by Lys]”, in the series with Bacillus subtilis, the “Antimicrobial Activity MIC B.” value was 1.7 µM. For the same sequence, the “Antimicrobial Activity MIC S.” value in the series with Staphylococcus aureus was 21.7 µM. Further, in the series with Escherichia coli, the “Antimicrobial Activity MIC E.” value is 2.3 µM. Moreover, the “Hemolytic LC50” value in the series on red blood cells is greater than 200 µM.
“GMWKKILGKLIR [HAL-1/10, HAL-1 analog, Ser4 and His9 substituted by Lys]”: the “Antimicrobial Activity MIC B.” value in the series with Bacillus subtilis is on record as 0.8 µM. The “Antimicrobial Activity MIC S.” value in the series on Staphylococcus aureus is listed as 15.0 µM. For the same sequence, the “Antimicrobial Activity MIC E.” value with Escherichia coli is listed as 2.3 µM. The “Antimicrobial Activity MIC P.” value in the series on Pseudomonas aeruginosa was 13.1 µM. For the same sequence, the “Hemolytic LC50” value in the series on red blood cells is on record as greater than 200 µM.
In the case of “GMWSKILGHLIK [HAL-1/6, HAL-1 analog, Arg12 replaced by Lys]”, the “Antimicrobial Activity MIC B.” value with Bacillus subtilis was 1.3 µM. The “Antimicrobial Activity MIC S.” value in the series on Staphylococcus aureus is 15.8 µM. The “Antimicrobial Activity MIC E.” value in the series on Escherichia coli was 7.2 µM. In addition, in the series on Pseudomonas aeruginosa, the “Antimicrobial Activity MIC P.” value is 65.0 µM. For the same sequence, the “Hemolytic LC50” value in the series with red blood cells is recorded as 132 µM.
As to GMWSKILGHLIR [HAL-1], the “Antimicrobial Activity MIC B.” value with Bacillus subtilis is reported as 0.8 µM. Further, the “Antimicrobial Activity MIC S.” value in the series with Staphylococcus aureus is 7.7 µM. Besides, the “Antimicrobial Activity MIC E.” value in the series on Escherichia coli was 3.8 µM. Further, the “Antimicrobial Activity MIC P.” value with Pseudomonas aeruginosa was 45.0 µM. The “Hemolytic LC50” value in the series on red blood cells was 82 µM.
Regarding “GMWSKILGPLIR [HAL-1/2, HAL-1 analog, His9 substituted by Pro]”, the “Aggregation at high peptide concentration” value in series [1] is given as “form β-aggregates”. Also, the “Antimicrobial Activity MIC B.” value in the series with Bacillus subtilis was 3.6 µM. In the series with Staphylococcus aureus, the “Antimicrobial Activity MIC S.” value was greater than 100 µM. For the same sequence, the “Antimicrobial Activity MIC E.” value in the series on Escherichia coli is recorded as 30.0 µM. Besides, the “Antimicrobial Activity MIC P.” value in the series with Pseudomonas aeruginosa is greater than 100 µM. Moreover, the “Hemolytic LC50” value with red blood cells is recorded as greater than 200 µM.
